Reference: ChEMBL document CHEMBL3885861, “Open TG-GATES”

Species: Rattus norvegicus
Assay: Open TG-GATES - Regimen: Single
Format: toxicity, organism-based, Sprague-Dawley
Design: regimen Single, gender Male, age 6 weeks
Settings: in vivo, po, route gavage; for APTT / Bas / Eos / Fbg / Hb / Ht / Lym / MCH / MCHC / MCV / Mono / Neu / PT / Plat / RBC / Ret / WBC: tissue Blood; for KIDNEY_L / KIDNEY_R / KIDNEY_TOTAL: tissue Kidney; for LIVER: tissue Liver
[1] = 100 mg/kg, 3 h, tissue Plasma, dose level Low
[2] = 100 mg/kg, 6 h, tissue Plasma, dose level Low
[3] = 100 mg/kg, 9 h, tissue Plasma, dose level Low
[4] = 100 mg/kg, 24 h, dose level Low
[5] = 100 mg/kg, 24 h, tissue Plasma, dose level Low

What does the source list for `C[C@H](CS)C(=O)N1CCC[C@H]1C(=O)O` [CAPTOPRIL]?
gamma-GTP (0 mg/kg, 24 h, tissue Plasma, dose level Control): 1 IU/L; TERMINAL_BW (100 mg/kg, 3 h, dose level Low): 224.3 g; APTT (100 mg/kg, 3 h, dose level Low): 16.3 s; Bas (100 mg/kg, 3 h, dose level Low): 0%; Eos (100 mg/kg, 3 h, dose level Low): 1%; Fbg (100 mg/kg, 3 h, dose level Low): 207 mg/dL; Hb (100 mg/kg, 3 h, dose level Low): 13.1 g/dL; Ht (100 mg/kg, 3 h, dose level Low): 40.2%; Lym (100 mg/kg, 3 h, dose level Low): 82.2%; MCH (100 mg/kg, 3 h, dose level Low): 21.1 pg; MCHC (100 mg/kg, 3 h, dose level Low): 32.7%; MCV (100 mg/kg, 3 h, dose level Low): 64.4 fL; Mono (100 mg/kg, 3 h, dose level Low): 4.8%; Neu (100 mg/kg, 3 h, dose level Low): 12.2%; PT (100 mg/kg, 3 h, dose level Low): 11.9 s; Plat (100 mg/kg, 3 h, dose level Low): 123.2 x10_4/uL; RBC (100 mg/kg, 3 h, dose level Low): 624.2 x10_4/ul; Ret (100 mg/kg, 3 h, dose level Low): 7.4%; KIDNEY_L (100 mg/kg, 3 h, dose level Low): 1 g; KIDNEY_R (100 mg/kg, 3 h, dose level Low): 1 g; KIDNEY_TOTAL (100 mg/kg, 3 h, dose level Low): 2.1 g; ALP [1]: 996 IU/L; ALT [1]: 35.6 IU/L; AST [1]: 67 IU/L; BUN [1]: 13.8 mg/dL; CRE [1]: 0.5 mg/dL; DBIL [1]: 0.008 mg/dL; GLC [1]: 205.2 mg/dL; IP [1]: 9.7 mg/dL; K [1]: 4.9 meq/L; LDH [1]: 113.6 IU/L; Na [1]: 137.8 meq/L; PL [1]: 131.8 mg/dL; RALB [1]: 3.6 g/dL; TBIL [1]: 0.4 mg/dL; TC [1]: 70.4 mg/dL; TG [1]: 68 mg/dL; TP [1]: 5.5 g/dL; gamma-GTP [1]: 2 IU/L; TERMINAL_BW (100 mg/kg, 6 h, dose level Low): 225.5 g; APTT (100 mg/kg, 6 h, dose level Low): 16.3 s; Bas (100 mg/kg, 6 h, dose level Low): 0%; Eos (100 mg/kg, 6 h, dose level Low): 1%; Hb (100 mg/kg, 6 h, dose level Low): 12.9 g/dL; Ht (100 mg/kg, 6 h, dose level Low): 39.5%; Lym (100 mg/kg, 6 h, dose level Low): 76.4%; MCH (100 mg/kg, 6 h, dose level Low): 21.8 pg; MCHC (100 mg/kg, 6 h, dose level Low): 32.8%; MCV (100 mg/kg, 6 h, dose level Low): 66.5 fL; Mono (100 mg/kg, 6 h, dose level Low): 5.8%; Neu (100 mg/kg, 6 h, dose level Low): 17%; PT (100 mg/kg, 6 h, dose level Low): 12.2 s; Plat (100 mg/kg, 6 h, dose level Low): 113.6 x10_4/uL; RBC (100 mg/kg, 6 h, dose level Low): 595.2 x10_4/ul; Ret (100 mg/kg, 6 h, dose level Low): 7.9%; WBC (100 mg/kg, 6 h, dose level Low): 126.2 x10_2/uL; KIDNEY_L (100 mg/kg, 6 h, dose level Low): 1.1 g; KIDNEY_R (100 mg/kg, 6 h, dose level Low): 1.1 g; KIDNEY_TOTAL (100 mg/kg, 6 h, dose level Low): 2.2 g; ALP [2]: 794.8 IU/L; ALT [2]: 30.8 IU/L; AST [2]: 55.6 IU/L; BUN [2]: 17.4 mg/dL; CRE [2]: 0.6 mg/dL; DBIL [2]: 0.028 mg/dL; GLC [2]: 192.4 mg/dL; IP [2]: 9.6 mg/dL; K [2]: 4.9 meq/L; LDH [2]: 73.8 IU/L; Na [2]: 138.6 meq/L; PL [2]: 130.6 mg/dL; RALB [2]: 3.7 g/dL; TBIL [2]: 0.4 mg/dL; TC [2]: 69.8 mg/dL; TG [2]: 62.6 mg/dL; TP [2]: 5.3 g/dL; gamma-GTP [2]: 1.6 IU/L; TERMINAL_BW (100 mg/kg, 9 h, dose level Low): 220.6 g; APTT (100 mg/kg, 9 h, dose level Low): 16.3 s; Bas (100 mg/kg, 9 h, dose level Low): 0%; Eos (100 mg/kg, 9 h, dose level Low): 1%; Fbg (100 mg/kg, 9 h, dose level Low): 205.8 mg/dL; Hb (100 mg/kg, 9 h, dose level Low): 12.8 g/dL; Ht (100 mg/kg, 9 h, dose level Low): 38.8%; Lym (100 mg/kg, 9 h, dose level Low): 74%; MCH (100 mg/kg, 9 h, dose level Low): 21.6 pg; MCHC (100 mg/kg, 9 h, dose level Low): 33%; MCV (100 mg/kg, 9 h, dose level Low): 65.6 fL; Mono (100 mg/kg, 9 h, dose level Low): 5.4%; Neu (100 mg/kg, 9 h, dose level Low): 19.2%; PT (100 mg/kg, 9 h, dose level Low): 12.1 s; Plat (100 mg/kg, 9 h, dose level Low): 119.2 x10_4/uL; RBC (100 mg/kg, 9 h, dose level Low): 591.8 x10_4/ul; Ret (100 mg/kg, 9 h, dose level Low): 8.2%; KIDNEY_L (100 mg/kg, 9 h, dose level Low): 1 g; KIDNEY_R (100 mg/kg, 9 h, dose level Low): 1 g; KIDNEY_TOTAL (100 mg/kg, 9 h, dose level Low): 2 g; LIVER (100 mg/kg, 9 h, dose level Low): 9 g; ALP [3]: 891.4 IU/L; ALT [3]: 30.6 IU/L; AST [3]: 59.2 IU/L; BUN [3]: 13.4 mg/dL; CRE [3]: 0.4 mg/dL; DBIL [3]: 0.084 mg/dL; GLC [3]: 202.4 mg/dL; K [3]: 4.7 meq/L; LDH [3]: 71 IU/L; Na [3]: 138.6 meq/L; PL [3]: 122.4 mg/dL; RALB [3]: 3.6 g/dL; TBIL [3]: 0.3 mg/dL; TC [3]: 65.2 mg/dL; TG [3]: 55.8 mg/dL; TP [3]: 5.2 g/dL; gamma-GTP [3]: 1.8 IU/L; TERMINAL_BW [4]: 234.4 g; APTT [4]: 17.2 s; Bas [4]: 0%; Eos [4]: 1.4%; Hb [4]: 12.8 g/dL; Ht [4]: 38.4%; Lym [4]: 71.8%; MCH [4]: 21.1 pg; MCHC [4]: 33.2%; MCV [4]: 63.6 fL; Mono [4]: 6.4%; Neu [4]: 20%; PT [4]: 11.6 s; Plat [4]: 114.1 x10_4/uL; RBC [4]: 604.4 x10_4/ul; Ret [4]: 8.7%; WBC [4]: 82.6 x10_2/uL; KIDNEY_L [4]: 1.1 g; KIDNEY_R [4]: 1.1 g; KIDNEY_TOTAL [4]: 2.3 g; LIVER [4]: 11.3 g; ALT [5]: 40.8 IU/L; AST [5]: 68.8 IU/L; BUN [5]: 15.8 mg/dL; CRE [5]: 0.6 mg/dL; Ca [5]: 11.1 mg/dL; DBIL [5]: 0.058 mg/dL; GLC [5]: 189.4 mg/dL; IP [5]: 8.5 mg/dL; K [5]: 4.6 meq/L; LDH [5]: 113 IU/L; Na [5]: 139 meq/L; PL [5]: 147.6 mg/dL; RALB [5]: 4 g/dL; TBIL [5]: 0.3 mg/dL; TC [5]: 78.8 mg/dL; TG [5]: 92.8 mg/dL; TP [5]: 5.8 g/dL
